Results on 3 compounds are retold here after patent US8754227B2, “Metalloenzyme inhibitor compounds” (Viamet Pharmaceuticals, Inc., priority 2010, dated 2014).

For one series, the system named is C. albicans. Description: Minimum Inhibitory Concentration (MIC), CLSI M27-A2. Type of series: cell-based. The following applies: Candida albicans; about 50% growth reduction; approximately 48 h at 35°C. As to the method: Compounds were assessed for their ability to inhibit the growth of common strains of fungus, C. albicans using a standardized procedure (CLSI M27-A2). Stock solutions of the test compounds and standards were prepared in DMSO at 1,600 μg/mL (C. albicans). Eleven, serial, one-half dilutions of compounds were prepared in 96-well plates in RPMI+MOPS. The assay concentration ranges were […] (C. albicans). Cell suspensions of C. albicans were prepared and added to each well at concentrations of approximately 3.7×10^3 colony-forming-units per milliliter (cfu/mL). All testing was in duplicate. The inoculated plates were incubated for approximately 48 h at 35±1° C. At the completion of incubation the wells of each plate were evaluated visually for the presence of fungal growth. […] For QC purposes C. krusei isolate ATCC 6258 (4.0×10^3 efu/mL) was included in the VOR assay.

The next series concerns the target CYP2C9 (Homo sapiens (Human), UniProt P11712). Description: Inhibition of liver cytochrome P450 enzymes, pooled human liver microsomes. Type of series: in vitro ADME. How it is done:
(§1) Solutions of each test compound were separately prepared at concentrations of 20000, 6000, 2000, 600, 200, and 60 μM by serial dilution with DMSO:MeCN (50:50 v/v). […] The mixed inhibitor solutions were then diluted 20-fold with DMSO:MeCN:deionized water (5:5:180 v/v/v) to concentrations of 300, 100, 30, 10, 3, 1, 0.3, and 0.1 μM. The percent of organic solvent attributable to the test compound or inhibitor mixture in the final reaction mixture was 2% v/v. Pooled human liver microsome suspension (20 mg/mL) was diluted with phosphate buffer to obtain a 5 mg/mL suspension. A solution of NADPH was prepared in phosphate buffer at a concentration of 5 mM. Separate stock solutions of each substrate were prepared in DMSO:MeCN (50:50 v/v), mixed, and diluted in phosphate buffer to obtain a single solution containing each substrate at five times its experimentally determined Km concentration. The percent of organic solvent attributable to substrate mixture in the final reaction mixture was 1% v/v. Substrate solution and microsome suspension were combined in a 1:1 volume ratio, mixed, and distributed to reaction wells of a PCR plate. Individual test compound or combined inhibitor solutions at each concentration were added to the wells and mixed by repetitive aspirate-dispense cycles. […] Reaction mixtures were allowed to equilibrate at 37° C. for approximately two minutes before adding NADPH solution to initiate reaction, followed by pipette mixing of reaction mixture. Ten minutes after addition of NADPH, the reaction mixtures were quenched with cold acetonitrile. […] A portion of the supernatant was analyzed by gradient reverse-phase HPLC with detection by electrospray ionization triple quadrupole mass spectrometry in the positive ion mode. Data was fitted to sigmoid dose-response curves and the inhibitory potency of each test compound was determined as its IC50 value.
(Microsomes from liver hold many membrane-bound enzymes, among them those of drug oxidation.)

Another series addresses CYP3A4 (Homo sapiens (Human), UniProt P08684). The series is described as above. The series is classed as in vitro ADME. As to the method:
as §1

In a further series the target is CYP2C19 (Homo sapiens (Human), UniProt P33261). The series is described as above. The series is classed as in vitro ADME. How it is done:
as §1

Each structure is given as a SMILES string. In brackets after ≈: the same amount, converted by molar mass. A value given as a limit tells only on which side of the number the result lay.

CYP3A4, sequence (P08684 whole entry): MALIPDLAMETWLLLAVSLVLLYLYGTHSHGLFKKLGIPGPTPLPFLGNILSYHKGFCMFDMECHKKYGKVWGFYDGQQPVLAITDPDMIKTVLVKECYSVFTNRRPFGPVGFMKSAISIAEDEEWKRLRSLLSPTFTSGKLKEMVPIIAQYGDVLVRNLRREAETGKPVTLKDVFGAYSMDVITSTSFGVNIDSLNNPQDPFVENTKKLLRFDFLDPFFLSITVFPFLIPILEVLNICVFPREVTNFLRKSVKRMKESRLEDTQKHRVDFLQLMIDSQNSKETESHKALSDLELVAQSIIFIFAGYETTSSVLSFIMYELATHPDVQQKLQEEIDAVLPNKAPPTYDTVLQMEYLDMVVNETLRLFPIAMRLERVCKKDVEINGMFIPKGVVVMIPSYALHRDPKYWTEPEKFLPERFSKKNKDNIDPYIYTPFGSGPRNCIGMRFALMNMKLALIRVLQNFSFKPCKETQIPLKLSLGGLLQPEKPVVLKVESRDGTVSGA
CYP2C9, sequence (P11712 whole entry): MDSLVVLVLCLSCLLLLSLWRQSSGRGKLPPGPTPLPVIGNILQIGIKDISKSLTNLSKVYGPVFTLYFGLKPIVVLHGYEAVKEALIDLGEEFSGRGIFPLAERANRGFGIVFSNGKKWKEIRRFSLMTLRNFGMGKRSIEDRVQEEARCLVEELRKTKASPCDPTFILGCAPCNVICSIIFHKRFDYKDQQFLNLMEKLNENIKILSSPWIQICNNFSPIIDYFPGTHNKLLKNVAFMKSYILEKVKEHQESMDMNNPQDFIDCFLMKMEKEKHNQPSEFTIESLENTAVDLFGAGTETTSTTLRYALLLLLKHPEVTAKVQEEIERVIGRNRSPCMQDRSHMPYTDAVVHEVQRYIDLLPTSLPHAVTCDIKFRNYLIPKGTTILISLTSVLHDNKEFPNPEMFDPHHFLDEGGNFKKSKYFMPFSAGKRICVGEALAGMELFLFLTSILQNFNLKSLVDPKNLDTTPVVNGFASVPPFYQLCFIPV
CYP2C19, sequence (P33261 whole entry): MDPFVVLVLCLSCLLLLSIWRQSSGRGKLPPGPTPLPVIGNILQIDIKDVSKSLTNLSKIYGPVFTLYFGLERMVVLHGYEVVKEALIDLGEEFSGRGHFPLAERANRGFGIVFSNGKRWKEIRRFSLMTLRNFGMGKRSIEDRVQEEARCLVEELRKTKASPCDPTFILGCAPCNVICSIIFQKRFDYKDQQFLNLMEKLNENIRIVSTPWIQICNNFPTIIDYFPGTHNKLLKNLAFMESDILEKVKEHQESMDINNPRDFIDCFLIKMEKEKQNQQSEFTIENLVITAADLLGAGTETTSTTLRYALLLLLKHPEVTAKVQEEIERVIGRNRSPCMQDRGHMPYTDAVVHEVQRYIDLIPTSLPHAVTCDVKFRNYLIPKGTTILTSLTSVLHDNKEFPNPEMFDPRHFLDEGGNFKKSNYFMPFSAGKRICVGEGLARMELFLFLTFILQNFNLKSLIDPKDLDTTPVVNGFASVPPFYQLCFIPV

By MIC is commonly meant the smallest concentration in the dilution series that meets the test's criterion for growth inhibition. Lower therefore signals greater potency. One may read the IC50 as the concentration that inhibits the measured activity by half. Consider `OC(Cn1cncn1)(c1ccc(F)cc1F)C(F)(F)c1ccc(-c2ccc(OC(F)(F)F)cc2)cn1` [Example 18, 2-(2,4-Difluorophenyl)-1,1-difluoro-3-(1H-1,2,4-triazol-1-yl)-L-(5-(4-(trifluoromethoxy)phenyl)pyridin-2-yl)propan-2-ol], for which the MIC with C. albicans is ≤ 1 ng/mL. The IC50 was 3.1 µM at CYP2C9, 3.8 µM at CYP3A4 and 11 µM at CYP2C19.
For the compound `OC(Cn1cncn1)(c1ccc(F)cc1F)C(F)(F)c1ccc(-c2ccc(F)cc2)cn1` (stereo not drawn) [Example 16, 2-(2,4-Difluorophenyl)-1,1-difluoro-1-(5-(4-fluorophenyl)pyridin-2-yl)-3-(1H-1,2,4-triazol-1-yl)propan-2-ol], in the series on C. albicans, the minimum inhibitory concentration (MIC) is 2 ng/mL (≈ 4.48 nM).
Regarding `OC(Cn1cncn1)(c1ccc(F)cc1F)C(F)(F)c1ccc(-c2ccc(OCC(F)(F)F)cc2)cn1` (stereo not drawn) [Example 17, 2-(2,4-difluorophenyl)-1,1-difluoro-3-(1H-1,2,4-triazol-1-yl)-1-(5-(4-(2,2,2-trifluoroethoxy)phenyl)pyridin-2-yl)propan-2-ol], the MIC in the series on C. albicans was ≤ 1 ng/mL.
